# Experimental data published in patent publication US12697313B2, “Methods of treating anemia using formoterol or a pharmaceutically acceptable salt thereof” (Dana-Farber Cancer Institute, Inc., priority 2022, dated 2026).
# Counter-ions that a name gives are not always drawn.
# Tested on: phenylhydrazine (PHZ)-treated mice
# Test: FF/Arf i.p. in PHZ-treated mice at sub-lethal dose of 60 mg/kg
# Assay type: in vivo
smiles,measurement,setting,value
"COc1ccc(C[C@@H](C)NC[C@H](O)c2ccc(O)c(NC=O)c2)cc1 [Arf, N-[2-hydroxy-5-[(1R)-1-hydroxy-2-[[(1R)-2-(4-methoxyphenyl)-1-methylethyl]amino]ethyl]phenyl]-formamide, (2R,3R)-2,3-dihydroxybutanedioate (1:1 salt)]",transferrin receptor expression in CFU-e derived from BMPs,FIG. 39B,transferrin receptor expression is enhanced
same,Hemoglobin (Hb) in peripheral blood,"after 7 and 14 days of i.p., FIG. 35",increase Hemoglobin (Hb)
same,RBC parameters (HCT % and RBCs) in peripheral blood,"after 7 days of i.p., FIG. 34",increases RBC parameters
same,LS-K and LSK cells in bone marrow progenitors,"after 14 days of i.p., FIG. 36A-36B","increase LSK, LS-K, and mitochondrial activity"
same,mitochondrial membrane potential (TMRE staining) in bone marrow progenitors,"after 14 days of i.p., FIG. 36C","increase LSK, LS-K, and mitochondrial activity"
same,megakaryocyte erythrocyte progenitors (MEP) in BM,"after 14 days of i.p., FIG. 37A",increase megakaryocyte erythrocyte progenitors (MEP)
same,body weights,"i.p., PHZ 60 mg/kg, FIG. 32",enhances body weights
same,platelets and WBCs in peripheral blood,"i.p., PHZ 60 mg/kg, FIG. 33",do not affect platelets and WBCs
